Experimental data reported in US9012655B2, “Antimicrobial/adjuvant compounds and methods” (Denouamed, Inc., priority 2011, dated 2015).
Values after ≈ are worked out from the molar mass of the structure shown.

Columns and labels:
Assay in all cases: MIC panel of challenge pathogens (CLSI)
Type in all cases: cell-based
[1] = tested on: Bacillus cereus NCTC6349; details: Bacillus cereus NCTC6349
Method in brief: (§1)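 Broth microdilution per CLSI guidelines. Final inoculum 2-8×10^5 CFU/ml, compounds serially two-fold diluted from 128 mg/L top concentration. Incubated in the dark at 30-37° C for 24-48 h, aerobic or anaerobic as appropriate. MIC read visually as 100% inhibition endpoint; MIC50 and MIC80 also reported.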

[2] = tested on: Enterococcus faecalis ATCC29212; details: Enterococcus faecalis ATCC29212
Method in brief: as §1

[3] = tested on: Enterococcus faecalis ATCC51299; details: Enterococcus faecalis ATCC51299
Method in brief: as §1

[4] = tested on: Enterococcus faecium ATCC700221; details: Enterococcus faecium ATCC700221
Method in brief: as §1

[5] = tested on: Staphylococcus aureus ATCC43300; details: Staphylococcus aureus ATCC43300
Method in brief: as §1

[6] = tested on: Staphylococcus aureus AUR131 007035; details: AUR131007035, Staphylococcus aureus AUR131 007035
Method in brief: as §1

[7] = tested on: Staphylococcus aureus AUR58 7005; details: AUR587005, Staphylococcus aureus AUR58 7005
Method in brief: as §1

[8] = tested on: Staphylococcus aureus AUR59 7005; details: AUR597005, Staphylococcus aureus AUR59 7005
Method in brief: as §1

[9] = tested on: Staphylococcus aureus AUR60 7005; details: AUR607005, Staphylococcus aureus AUR60 7005
Method in brief: as §1

[10] = tested on: Staphylococcus aureus EUP MRSA002; details: EUPMRSA002, Staphylococcus aureus EUP MRSA002
Method in brief: as §1

[11] = tested on: Staphylococcus aureus EUP MRSA004; details: EUPMRSA004, Staphylococcus aureus EUP MRSA004
Method in brief: as §1

[12] = tested on: Staphylococcus aureus EUP SAU040; details: EUPSAU040, Staphylococcus aureus EUP SAU040
Method in brief: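 CLSI broth microdilution; inoculum 2-8×10^5 CFU/ml; 2-fold series, top 128 mg/L; 30-37° C, 24-48 h, dark; visual read, 100% inhibition endpoint.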

[13] = tested on: Staphylococcus aureus NRS1 (ATCC700699); details: Staphylococcus aureus NRS1 (ATCC700699)
Method in brief: as §1

[14] = tested on: Staphylococcus aureus NRS2 (ATCC700698); details: Staphylococcus aureus NRS2 (ATCC700698)
Method in brief: as §1

[15] = tested on: Staphylococcus aureus NRS382; details: Staphylococcus aureus NRS382
Method in brief: as §1

[16] = tested on: Staphylococcus aureus NRS383; details: Staphylococcus aureus NRS383
Method in brief: as §1

[17] = tested on: Staphylococcus aureus NRS384; details: Staphylococcus aureus NRS384
Method in brief: as §1

[18] = tested on: Staphylococcus epidermidis NRS122; details: Staphylococcus epidermidis NRS122
Method in brief: as §1

[19] = tested on: Staphylococcus epidermidis NRS7; details: Staphylococcus epidermidis NRS7
Method in brief: as §1

MIC ([1]; read-out: 100% inhibition): 0.5 µg/mL (≈ 1.15 µM)
MIC50 ([1]; read-out: MIC50 (50%)): 0.5 µg/mL (≈ 1.15 µM)
MIC80 ([1]; read-out: MIC80 (80%)): 0.5 µg/mL (≈ 1.15 µM)
MIC ([2]; read-out: 100% inhibition): 1 µg/mL (≈ 2.3 µM)
MIC50 ([2]; read-out: MIC50 (50%)): 1 µg/mL (≈ 2.3 µM)
MIC80 ([2]; read-out: MIC80 (80%)): 1 µg/mL (≈ 2.3 µM)
MIC ([3]; read-out: 100% inhibition): 1 µg/mL (≈ 2.3 µM)
MIC50 ([3]; read-out: MIC50 (50%)): 1 µg/mL (≈ 2.3 µM)
MIC80 ([3]; read-out: MIC80 (80%)): 1 µg/mL (≈ 2.3 µM)
MIC ([4]; read-out: 100% inhibition): 0.5 µg/mL (≈ 1.15 µM)
MIC50 ([4]; read-out: MIC50 (50%)): 0.5 µg/mL (≈ 1.15 µM)
MIC80 ([4]; read-out: MIC80 (80%)): 0.5 µg/mL (≈ 1.15 µM)
MIC ([5]; read-out: 100% inhibition): 0.5 µg/mL (≈ 1.15 µM)
MIC50 ([5]; read-out: MIC50 (50%)): 0.5 µg/mL (≈ 1.15 µM)
MIC80 ([5]; read-out: MIC80 (80%)): 0.5 µg/mL (≈ 1.15 µM)
MIC ([6]; read-out: 100% inhibition): 0.5 µg/mL (≈ 1.15 µM)
MIC50 ([6]; read-out: MIC50 (50%)): 0.5 µg/mL (≈ 1.15 µM)
MIC80 ([6]; read-out: MIC80 (80%)): 0.5 µg/mL (≈ 1.15 µM)
MIC ([7]; read-out: 100% inhibition): 2 µg/mL (≈ 4.6 µM)
MIC50 ([7]; read-out: MIC50 (50%)): 1 µg/mL (≈ 2.3 µM)
MIC80 ([7]; read-out: MIC80 (80%)): 2 µg/mL (≈ 4.6 µM)
MIC ([8]; read-out: 100% inhibition): 0.5 µg/mL (≈ 1.15 µM)
MIC50 ([8]; read-out: MIC50 (50%)): 0.5 µg/mL (≈ 1.15 µM)
MIC80 ([8]; read-out: MIC80 (80%)): 0.5 µg/mL (≈ 1.15 µM)
MIC ([9]; read-out: 100% inhibition): 0.5 µg/mL (≈ 1.15 µM)
MIC50 ([9]; read-out: MIC50 (50%)): 0.5 µg/mL (≈ 1.15 µM)
MIC80 ([9]; read-out: MIC80 (80%)): 0.5 µg/mL (≈ 1.15 µM)
MIC ([10]; read-out: 100% inhibition): 0.5 µg/mL (≈ 1.15 µM)
MIC50 ([10]; read-out: MIC50 (50%)): 0.5 µg/mL (≈ 1.15 µM)
MIC80 ([10]; read-out: MIC80 (80%)): 0.5 µg/mL (≈ 1.15 µM)
MIC ([11]; read-out: 100% inhibition): ≤ 0.25 µg/mL
MIC50 ([11]; read-out: MIC50 (50%)): ≤ 0.25 µg/mL
MIC80 ([11]; read-out: MIC80 (80%)): ≤ 0.25 µg/mL
MIC ([12]; read-out: 100% inhibition): 0.5 µg/mL (≈ 1.15 µM)
MIC50 ([12]; read-out: MIC50 (50%)): 0.5 µg/mL (≈ 1.15 µM)
MIC80 ([12]; read-out: MIC80 (80%)): 0.5 µg/mL (≈ 1.15 µM)
MIC ([13]; read-out: 100% inhibition): ≤ 0.25 µg/mL
MIC50 ([13]; read-out: MIC50 (50%)): ≤ 0.25 µg/mL
MIC80 ([13]; read-out: MIC80 (80%)): ≤ 0.25 µg/mL
MIC ([14]; read-out: 100% inhibition): 0.5 µg/mL (≈ 1.15 µM)
MIC50 ([14]; read-out: MIC50 (50%)): 0.5 µg/mL (≈ 1.15 µM)
MIC80 ([14]; read-out: MIC80 (80%)): 0.5 µg/mL (≈ 1.15 µM)
MIC ([15]; read-out: 100% inhibition): 0.5 µg/mL (≈ 1.15 µM)
MIC50 ([15]; read-out: MIC50 (50%)): 0.5 µg/mL (≈ 1.15 µM)
MIC80 ([15]; read-out: MIC80 (80%)): 0.5 µg/mL (≈ 1.15 µM)
MIC ([16]; read-out: 100% inhibition): 0.5 µg/mL (≈ 1.15 µM)
MIC50 ([16]; read-out: MIC50 (50%)): 0.5 µg/mL (≈ 1.15 µM)
MIC80 ([16]; read-out: MIC80 (80%)): 0.5 µg/mL (≈ 1.15 µM)
MIC ([17]; read-out: 100% inhibition): ≤ 0.25 µg/mL
MIC50 ([17]; read-out: MIC50 (50%)): ≤ 0.25 µg/mL
MIC80 ([17]; read-out: MIC80 (80%)): ≤ 0.25 µg/mL
MIC ([18]; read-out: 100% inhibition): 16 µg/mL (≈ 36.8 µM)
MIC50 ([18]; read-out: MIC50 (50%)): 4 µg/mL (≈ 9.2 µM)
MIC80 ([18]; read-out: MIC80 (80%)): 8 µg/mL (≈ 18.4 µM)
MIC ([19]; read-out: 100% inhibition): 2 µg/mL (≈ 4.6 µM)
MIC50 ([19]; read-out: MIC50 (50%)): 1 µg/mL (≈ 2.3 µM)
MIC80 ([19]; read-out: MIC80 (80%)): 1 µg/mL (≈ 2.3 µM)
Compound: Clc1ccc(Cc2sc(-c3nnn[nH]3)cc2-c2cccc(CC3CCCC3)c2)cc1 [DNM0610, 5-(5-(4-Chlorobenzyl)-4-(3-(cyclopentylmethyl)phenyl)thiophen-2-yl)-1H-tetrazole]
